The text below walks through data of patent publication US20080227724A1, “Anti-Inflammatory Agents” (CAMBRIDGE UNIVERSITY TECHNICAL SERVICES LIMITED, priority 2003, published 2008).

One data set concerns TNF-alpha. As to the kind of experiment: Sub-lethal LPS-induced endotoxemia model, circulating TNF-alpha. It is filed as in vivo, CD-1 mice. The note with it: for block of TNF-alpha stimulation: at a suitable dose. As for the experimental part: The anti-inflammatory activity of the compounds of the invention was determined in vivo using a sub-lethal LPS-induced endotoxemia model. Adult male CD-1 mice (n=6 per group) were pretreated with various agents (vehicle, compounds of the invention or positive control agents such as the steroid dexamethasone) by sub-cutaneous injection 30 minutes prior to an acute inflammatory challenge with 750 μg of bacterial lipopolysaccharide (from E. Coli 0111:B4; Sigma catalog #L-4130) via the intraperitoneal route. The vehicle in each case was 0.6% DMSO, 1% carboxymethyl cellulose, or alternatively 1% carboxymethylcellulose alone. For some of the compounds, this formulation results in a finely divided suspension or slurry rather than a clear solution. Two hours after LPS challenge, the animals were sacrificed and blood was drawn by cardiac puncture. The level of the pro-inflammatory cytokine TNF-alpha was determined using the Quantikine M ELISA (R&D Systems) for murine TNF-alpha, and reported as the mean ±standard error for each group.
By 2 hours after the LPS challenge, this had increased by more than 1,000 fold to an average of 20,000 pg/ml, representing a sensitive index of inflammatory activation. Pre-treatment with known anti-inflammatory drugs (such as the steroid dexamethasone) reduced the stimulation of TNF-alpha by up to 85-95%, depending on the dose given.
In a separate series of experiments, the compounds of the invention were administered to animals as an oral suspension, formulated in the same way as for the sub-cutaneous dosing experiments, followed 1 hour later with the LPS challenge exactly as described above. […] All five compounds were maximally active at a dose below 30 mg/kg.

Data set [1] relates to MCP-1 induced THP-1 cell migration. The data set can be described thus: Inhibition of MCP-1 induced leukocyte migration (transwell migration assay). Format: cell-based, human. The note with it: inhibition of MCP-1 induced THP-1 cell migration, dose-response curves. The protocol: In principle, this assay consists of two chambers separated by a porous membrane. The chemoattractant is placed in the lower compartment and the cells are placed in the upper compartment. After incubation for a period at 37° C. the cells move towards the chemoattractant, and the number of cells in the lower compartment is proportional to the chemoattractant activity (relative to a series of controls). The THP-1 cell line (European Cell culture Collection) were used as the leukocyte cell population. The following procedure is used for testing the invention compounds for MCP-1 induced leukocyte migration: First, the cell suspension to be placed in the upper compartment is prepared. The THP-1 cells are pelleted by centrifugation (770×g; 4 mins) and washed with Geys Balanced Salt Solution with 1 mg/ml BSA (GBSS+BSA). This wash is then repeated, and the cells repelleted before being resuspended in a small volume of GBSS+BSA for counting, for example using a standard haemocytometer. The volume of GBSS+BSA is then adjusted depending on the number of cells present so that the cells are at final density of 4.45×10^6 cells per ml of GBSS+BSA. […] The number of cells migrated into the lower chamber under each condition can then be determined by a number of methods, including direct counting, labelling with fluorescent or radioactive markers or through the use of a vital dye. […]

The subject of data set [2] is chemokine-induced migration. The data set can be described thus: Chemokine-induced leukocyte migration in vitro (prior art). The note with it: parental molecule (S)-3-(undec-10-enoyl)-aminoglutarimide. It is filed as cell-based.
Data set [3] is classed as in vitro ADME, human. From the text:
As an approach to identifying such stable analogs, various derivatives of (S)-3-(undec-10-enoyl)-aminoglutarimide have been tested for their stability in serum.

The conditions of data set [4]: cited from earlier work.
Where [5] appears, read: oral suspension 1 hour before LPS.
Where [6] appears, read: sub-cutaneous injection 30 minutes prior to LPS.

Bridge positions count the residues as written; N and C are the ends. Square brackets hold non-standard residues; d marks the D form. Ends that are not written are not given here.

`C[C@@H]1C[C@H]2[C@@H]3CCC4=CC(=O)C=C[C@]4(C)[C@@]3(F)[C@@H](O)C[C@]2(C)[C@@]1(O)C(=O)CO` [dexamethasone, reference compound]: the “reduction of the stimulation of TNF-alpha” value in the data set on TNF-alpha (pre-treatment, 2 hours after LPS challenge, depending on the dose given) is reported as 85-95%.
Turning to “(S)-3-(2′,2′-dimethyl-dodecanoyl)amino-caprolactam [Example 12]”, the “(S)-enantiomer more active than the (R)-enantiomer” value in data set [1] is recorded as 10-50 fold. For the same molecule, the “block of TNF-alpha stimulation” value with TNF-alpha (setting [5]) is reported as “able to block TNF-alpha stimulation”; with TNF-alpha (setting [6]), “block TNF-alpha stimulation to a similar extent to dexamethasone”.
For the molecule `C=CCCCCCCCCC(=O)[C@@H]1CCCNC1=O` [(S)-3-(undec-10-enoyl)-tetrahydropyridin-2-one], in data set [2], the “potency compared with the parental molecule” value is “considerably reduced potency”. The “time completely stable in human serum” value in data set [3] (human, 7 days) is “at least 7 days”.
“(S)-3-(2′,2′-Dimethyl-propionyl)amino-caprolactam [Example 20]”: the “block of TNF-alpha stimulation” value is given as “able to block TNF-alpha stimulation” in the data set with TNF-alpha (setting [5]) and “block TNF-alpha stimulation to a similar extent to dexamethasone” in the data set on TNF-alpha (setting [6]).
On to `C=CCCCCCCCCC(=O)N[C@H]1CCC(=O)NC1=O` [NR58,4, (S)-3-(undec-10-enoyl)-aminoglutarimide], for which the “stability of the aminoglutarimide ring in serum” value in data set [3] is given as “susceptible to enzymatic ring opening in serum”.
For the molecule “c(DCys-DGln-DIle-DTrp-DLys-DGln-DLys-DPro-DAsp-DLeu-DCys)-NH2 ([dC][dQ][dI][dW][dK][dQ][dK][dP][dD][dL][dC]-NH2; disulfide 1-11 (inferred)) [NR58-3.14.3]”, the “half-life period of clearance from blood plasma” value in data set [4] (after intravenous injection) is on record as “less than 30 minutes”. Besides, the oral bioavailability result in data set [4] (in vivo, po) is “not orally bioavailable”.
With “(S)-(Z)-3-(hexadec-9-enoyl)amino-caprolactam [Example 9]”, the “block of TNF-alpha stimulation” value in the data set with TNF-alpha (setting [5]) is reported as “able to block TNF-alpha stimulation”; with TNF-alpha (setting [6]), “block TNF-alpha stimulation to a similar extent to dexamethasone”.
Turning to “(S)-(Z)-3-(octadec-9-enoyl)amino-caprolactam [Example 10]”, the “block of TNF-alpha stimulation” value is “able to block TNF-alpha stimulation” with TNF-alpha (setting [5]) and “block TNF-alpha stimulation to a similar extent to dexamethasone” with TNF-alpha (setting [6]).
For “(R)-3-hexadecanoylamino-caprolactam [Example 7]” the same measures were “able to block TNF-alpha stimulation” and “block TNF-alpha stimulation to a similar extent to dexamethasone”.
